Results on five molecules are retold here after patent publication US8309611B2, “Methods and compositions for treating lung cancer” (Golden Biotechnology Corporation, priority 2011, dated 2012).

One data set deals with A549. As to the kind of experiment: MTT cell survival assay, A549. The data set is classed as cell-based. The conditions noted are these: Homo sapiens. On the procedure: (§1) The NCI anti-cancer drug screen model was adopted to test anti-cancer effect of the exemplary compounds from Example 1. The isolated compound 1 from Example 1 was added into the culture media of human lung-cancer cells, A549, NCI-H460, CL1-0, CL1-5 or DMS 114, to test for tumor cell survival (either by MTT assay or colony formation assay). Compounds 4, 5, 6, and 7 were used in MTT assay against A549.
(§2) A549, CL1-0, and CL1-5 cells are human lung adenocarcinoma cell lines. CL1-0 cells are minimally invasive sub-lines with low migration. CL1-5 cell line, on the other hand, is highly invasive with high migration ability. The NCI-H460 cell line is derived from human large cell lung cancer, which is one of the major types of non-small cell lung carcinoma. DMS 114 is small cell lung cancer cell line, and was obtained from the American Type Culture Collection (Manassas, Va.).
MTT assay is commonly used to determine cell proliferation, percent of viable cells, and cytotoxicity. MTT (3-[4,5-dimethylthiazol-2-yl]2,5-diphenyltetrazolium bromide) is a yellow dye, which can be absorbed by the living cells and be reduced to purplish blue formazan crystals by succinate tetrazolium reductase in mitochondria. Formazan formation can therefore be used to assess and determine the survival rate of cells.
A549, NCI-H460, CL1-0, CL1-5 and DMS 114 cells were suspended and cultured in 10% fetal bovine serum (Life Technologies Inc.) containing RPM1-1640 culture medium that also includes 1% penicillin and 1% streptomycin. Human bronchial epithelium cell line, BEAS-2B was used as a control. The BEAS-2B cell line was cultured in LHC-9 serum-free medium. All these cell lines were incubated under 5% CO2, 37° C. for 24 hours. After cell proliferation, the cells were washed once with PBS, treated with the trypsin-EDTA, and then centrifuged at 1,200 rpm for 5 minutes to separate cells from supernatant. The cells were re-suspended in fresh culture medium (10 mL) and placed in 96 well plates.
To each of the 96 well plates containing A549, NCI-H460, CL1-0, CL1-5, DMS 114 or BEAS-2B, 0.03, 0.1, 0.3, 1 and 3 μg/ml of compound 1 were add. The 96 well plates were incubated at 37° C., 5% CO2 for 48 hours. Subsequently, in the dark environment to each well of the plates were added 2.5 mg/ml of MTT. The reaction was terminated by addition of 100 ul of lysis buffer after 4 hours. The survival rate of cells was calculated based on the measurement of absorption at the 570 nm wavelength by enzyme immunoassay analyzer.

Data set [1] is described as follows: Drug distribution in organs analysis (LC/MS/MS). The note with it: CD-1 mice, iv 2 mg/Kg, 0.25-4 hours, plasma, kidney, small and large intestine. The data set is classed as in vivo, CD-1 male mice. As to the method: Experiments described herein were performed on CD-1 male mice (average weight 24±2 grams, provided by BioLasco, Taiwan). The mice were injected intravenously with a solution of compound 1 in 5% ethanol and 30% PEG400 (2 mg/Kg body weight). After 0.25, 0.5, 1, 2, 4 hours of the iv injection, 0.5 ml of blood was collected via cardiac puncture. The bloods were placed in a centrifuge tube containing K-EDTA and centrifuged for 15 min at 4° C. under 1500 g to produce supernatants (plasma sample). At the same time points, lung, kidney, small intestine and large intestine of the mice were collected and preserved at −70° C. for similar analysis.
The concentration of compound 1 in various organ samples (i.e., plasma, large intestine, left kidney, lung, right kidney and small intestine) were analyzed by LC/MS/MS spectrometer (Waters Alliance 2790 LC and Micromass Quattro Ultima). For example, plasma sample was mixed with acetonitrile and then centrifuged to prepare supernatant that was analyzed by LC/MS/MS. The pharmacokinetic parameters were obtained by WinNonlin™ software by non-compartment method.

The test system of a further data set is NCI-H460. Put plainly: MTT cell survival assay, NCI-H460. The data set is classed as cell-based. The note with it: Homo sapiens, 48 hours, read-out: IC50 (μg/ml), in vitro cell survival rate test, NCI-H460. As to the method:
as §1, §2
(§3) MTT assay is commonly used to determine cell proliferation, percent of viable cells, and cytotoxicity. […]
(§4) To each of the 96 well plates containing A549, NCI-H460, CL1-0, CL1-5, DMS 114 or BEAS-2B, 0.03, 0.1, 0.3, 1 and 3 μg/ml of compound 1 were add. […] The survival rate of cells was calculated based on the measurement of absorption at the 570 nm wavelength by enzyme immunoassay analyzer.

A further data set concerns DMS 114. As to the kind of experiment: MTT cell survival assay, DMS 114. The note with it: Homo sapiens, 48 hours, read-out: IC50 against DMS 114. The data set is classed as cell-based. On the procedure: as §1, §2, §3, §4
(In general: Formazan colour is commonly taken as a measure of viable cells.)

Setting [2] is: 48 hours, read-out: IC50 (μg/ml), in vitro cell survival rate test, A549.

≈ marks a conversion by molar mass, not a printed value. Read-outs that look alike come from different tables or passages of the source.

Turning to `COC1=C(OC)C(O)C(C/C=C(\C)CCC(=O)O)C(C)C1=O` (stereo not drawn) [Compound 6], the IC50 in the data set on A549 (setting [2]) was determined as 28 µg/mL; with A549 (read-out: IC50 on A549 (text)), 28 µM.
As to `COC1=C(O)C(O)C(C/C=C(\C)CC/C=C(\C)CCC=C(C)C)C(C)C1=O` (stereo not drawn) [Compound 4, 3,4-dihydroxy-2-methoxy-6-methyl-5-(3,7,11-trimethyldodeca-2,6,10-trienyl)cyclohex-2-enone], in the data set with A549 (setting [2]), the IC50 was determined as 3.24 µg/mL.
For the molecule `COC1=C(OC)C(O)C(C/C=C(\C)CC/C=C(\C)CCCC(C)(C)OC)C(C)C1=O` (stereo not drawn) [Compound 7, 4-hydroxy-2,3-dimethoxy-5-(11-methoxy-3,7,11-trimethyldodeca-2,6-dienyl)-6-methylcyclohex-2-enone], in the data set with A549 (setting [2]), the IC50 is 10.5 µg/mL.
Same read-out and setting: the value for `COC1=C(OC)C(O)C(C/C=C(\C)CC/C=C(\C)CCCC(C)(C)O)C(C)C1=O` (stereo not drawn) [Compound 5, 4-hydroxy-5-(11-hydroxy-3,7,11-trimethyldodeca-2,6-dienyl)-2,3-dimethoxy-6-methylcyclohex-2-enone] was 13.5 µg/mL.
For `COC1=C(OC)C(O)C(C/C=C(\C)CC/C=C(\C)CCC=C(C)C)C(C)C1=O` (stereo not drawn) [Compound 1, 4-hydroxy-2,3-dimethoxy-6-methyl-5-(3,7,11-trimethyldodeca-2,6,10-trienyl)cyclohex-2-enone], the “Concentration in lung versus other organs (FIG. 10)” value in data set [1] is on record as “significantly higher concentration than other organs”. Besides, the IC50 came out at 0.45 µg/mL in the data set with A549 (setting [2]), 0.82 µg/mL (≈ 2.1 µM) in the data set with NCI-H460 and 16 µM in the data set with DMS 114.
